Test results published in US10905121B2, “Method for controlling PPO resistant weeds” (BASF SE, priority 2016, dated 2021).

Legend:
[1] = system: sensitive (w.1) and resistant weeds (w.2 to w.5); assay: greenhouse herbicidal activity test, summary over all biotypes; assay type: in vivo, Amaranthus tamariscinus; settings: w.1 to w.5, including those shown to contain the ΔG210 mutation
Description: (§1) The culture containers used were plastic flowerpots containing loamy sand with approximately 3.0% of humus as the substrate. The seeds of the test plants were sown separately for each species and/or resistant biotype. For the pre-emergence treatment, the active ingredients, which had been suspended or emulsified in water, were applied directly after sowing by means of finely distributing nozzles. The containers were irrigated gently to promote germination and growth and subsequently covered with transparent plastic hoods until the plants had rooted. This cover caused uniform germination of the test plants, unless this had been impaired by the active ingredients. For the post-emergence treatment, the test plants were first grown to a height of 3 to 15 cm, depending on the plant habit, and only then treated with the active ingredients which had been suspended or emulsified in water. For this purpose, the test plants were either sown directly and grown in the same containers, or they were first grown separately as seedlings and transplanted into the test containers a few days prior to treatment. Depending on the species, the plants were kept at 10-25° C. or 20-35° C., respectively. The test period extended over 2 to 4 weeks. During this time, the plants were tended, and their response to the individual treatments was evaluated. The evaluation was carried out by using a scale from 0 to 100. […]

[2] = system: Amaranthus tamariscinus (AMATA, common waterhemp), PPO resistant biotype 3 confirmed to contain the ΔG210 mutation (w.4); assay: greenhouse herbicidal activity test, weed w.4; assay type: in vivo; settings: PPO resistant biotype 3 (ΔG210), scale 0 to 100
Description: as §1

[3] = system: Amaranthus tamariscinus (AMATA, common waterhemp), Sensitive biotype (w.1); assay: greenhouse herbicidal activity test, weed w.1; assay type: in vivo; settings: scale 0 (no damage) to 100 (complete destruction)
Description: as §1

[4] = system: Amaranthus tamariscinus (AMATA, common waterhemp), PPO resistant biotype 4 confirmed to contain the ΔG210 mutation (w.5); assay: greenhouse herbicidal activity test, weed w.5; assay type: in vivo; settings: PPO resistant biotype 4 (ΔG210), scale 0 to 100
Description: as §1

[5] = system: Amaranthus tamariscinus (AMATA, common waterhemp), PPO resistant biotype 1 (w.2); assay: greenhouse herbicidal activity test, weed w.2; assay type: in vivo; settings: scale 0 to 100
Description: as §1

[6] = system: Amaranthus tamariscinus (AMATA, common waterhemp), PPO resistant biotype 2 (w.3); assay: greenhouse herbicidal activity test, weed w.3; assay type: in vivo; settings: scale 0 to 100
Description: as §1

In the case of `C=CCOC(=O)C(C)(C)OC(=O)c1cc(-n2c(=O)cc(C(F)(F)F)n(C)c2=O)ccc1Cl` [(I).1, butafenacil], the “activity on sensitive and resistant weeds (in words)” value [1] is reported as “very good activity”, the “Weed control (%) w.4” value ([2]; use rate 4 g/ha) is reported as 80% and the “Weed control (%) w.4” value ([2]; use rate 8 g/ha) is reported as 85%. The “Weed control (%) w.1” value ([3]; use rate 4 g/ha) was 100%, the “Weed control (%) w.1” value ([3]; use rate 8 g/ha) was 100% and the “Weed control (%) w.5” value ([4]; use rate 4 g/ha) was 80%. For the same molecule, the “Weed control (%) w.5” value ([4]; use rate 8 g/ha) was 83%, the “Weed control (%) w.2” value ([5]; use rate 4 g/ha) was 100% and the “Weed control (%) w.2” value ([5]; use rate 8 g/ha) was 100%. For the same molecule, the “Weed control (%) w.3” value ([6]; use rate 4 g/ha) was 100% and the “Weed control (%) w.3” value ([6]; use rate 8 g/ha) was 100%.
